Data set [1] concerns Mus musculus. The data set is described as follows: Acute toxicity in Swiss-Webster mouse at 1 g/kg, po. It is filed as organism-based. The conditions noted are these: in vivo, 1000 mg/kg.
Data set [2] has as its system Mus musculus. The data set is described as follows: Acute toxicity in Swiss-Webster mouse at 2 g/kg, po. It is filed as organism-based. As to conditions: in vivo, 2000 mg/kg.

Structures are written as SMILES.

The values that follow come from ChEMBL document CHEMBL1147370, “Selligueain A, a novel highly sweet proanthocyanidin from the rhizomes of Selliguea feei” (J Nat Prod, 1993).

`Oc1ccc([C@H]2Oc3c(c(O)cc4c3[C@H]3c5c(O)cc(O)cc5O[C@@](c5ccc(O)cc5)(O4)[C@@H]3O)[C@H](c3c(O)cc(O)c4c3O[C@H](c3ccc(O)cc3)[C@@H](O)C4)[C@H]2O)cc1` [SELLIGUEAIN A]: the Activity entry in the data set on Mus musculus [1] and with Mus musculus [2] was “Non-toxic” throughout.
